Assay results published in patent US5878747A, “Condom coated with acidic polysaccharides” (Fuji Latex Co., Ltd., priority 1993, dated 1999).

Each substance was assayed on AMV (avian myeloblastosis virus) reverse transcriptase (assay: AMV reverse transcriptase inhibition ([3H]dTTP incorporation)). Conditions: 1 Inhibition unit = activity which inhibits 1 unit of reverse transcriptase activity to 50%.
Type: biochemical
Experimental: 1 unit of AMV (avian myeloblastosis virus) reverse transcriptase was mixed with 50 μl of a mixture (50 mM tris hydrochloride, pH 8.4, 2 mM dithiothreitol, 100 mM KCl, 10 mM MgCl2, 0.1% triton X-100, 50 μg poly (rA)-oligo (dT)/ml, 1.25 μCi [^3 H] dTTP (57 Ci/mmol)) and with various concentration of various sulfated polysaccharides.
The reaction mixtures were incubated and stopped by the addition of 5% trichloroacetic acid. Precipitates were collected on glass fiber filters and their radio activities were determined by a liquid scintilation counter.
1 Inhibition unit is defined as an activity which inhibits 1 unit of reverse transcriptase activity to 50%.
For Dermatan sulfate, the “Inhibition Unit/mg” value was 210 Inhibition Unit/mg. In the case of Heparan sulfate, the “Inhibition Unit/mg” value is reported as 50 Inhibition Unit/mg. κ-Carrageenan was tested, and the “Inhibition Unit/mg” value was 30200 Inhibition Unit/mg. For Heparin, the “Inhibition Unit/mg” value was 830 Inhibition Unit/mg. In the case of λ-Carrageenan, the “Inhibition Unit/mg” value is reported as 68320 Inhibition Unit/mg. For Chondroitin sulfate, the “Inhibition Unit/mg” value was 30 Inhibition Unit/mg. For l-Carrageenan, the “Inhibition Unit/mg” value was 35810 Inhibition Unit/mg. With Karatan sulfate the “Inhibition Unit/mg” value was 30 Inhibition Unit/mg.
